Test results reported in US8624034B2, “Fluoro-pyridinone derivatives useful as antibacterial agents” (Pfizer Inc., priority 2011, dated 2014).
pIC50: −log10 of the molar value. In brackets after ≈: the same amount, converted by molar mass.

Key:
[1] = tested on: Acinetobacter baumannii/haemolyticus, multidrug-resistant clinical isolate (AB-3167); experiment: MIC determination, AB-3167; format: cell-based; settings: Table 3, lower of duplicate values
Experimental: (§1) The in vitro antibacterial activity of compounds described in the Examples was evaluated by minimum inhibitory concentration (MIC) testing according to Clinical and Laboratory Standards Institute (CLSI). See: Clinical and Laboratory Standards Institute. Methods for Dilution Antimicrobial Susceptibility Tests for Bacteria that Grow Aerobically; Approved Standard-Eighth Edition. CLSI document M7-A8 [ISBN 1-56238-689-1]. Clinical and Laboratory Standards Institute, 940 West Valley Road, Suite 1400, Wayne, Pa. 19087-1898 USA, 2006; also Clinical and Laboratory Standards Institute. Performance Standards for Antimicrobial Susceptibility Testing; Twentieth Informational Supplement. CLSI document M100-S20 [ISBN 1-56238-716-2]. Clinical and Laboratory Standards Institute.
(§2) The MIC determination is a standard laboratory method for evaluating the antibacterial activity of a compound. The MIC represents the lowest drug concentration that inhibits visible growth of bacteria following overnight incubation. […] Typically, the drug concentration range is broken down into 2-fold increments (e.g. 0.06 μg/mL, 0.12 μg/mL. 0.25 μg/mL, 0.50 μg/mL, 1.0 μg/mL, etc.) and the various drug concentrations are all individually incubated overnight with approximately the same number of bacteria. The MIC is then determined by visually inspecting the drug effect at each concentration, and identifying the lowest drug concentration that has inhibited bacterial growth as compared to the drug free control. Typically, bacteria continue to grow at drug concentrations lower than the MIC and don't grow at concentrations at and above the MIC.
(§3) The MIC values described in Table 2 and 3 below were derived from assays wherein each test compound was evaluated in duplicate. In cases where the duplicate values varied by 0-2-fold, the lower of the two values was reported below. Generally speaking, if the duplicate values varied by more than 2-fold, the assay was considered non-valid and was repeated until the variation between duplicate runs was ≦2-fold. In line with the CLSI guidelines referred to above, both control organisms and reference compounds were utilized in each MIC assay to provide proper quality control. MIC values generated with these control organisms and reference compounds were required to fall within a defined range for the assay to be considered valid and be included herein. Those skilled in the art will recognize that MIC values can and do vary from experiment to experiment. Generally speaking, it should be recognized that MIC values often vary +/−2-fold from experiment to experiment. While a single MIC is reported for each compound and each microorganism, the reader should not conclude that each compound was only tested once. Several of the compounds were subjected to multiple tests. The data reported in Tables 2 and 3 is reflective of the compounds relative activity and different MICs may have been generated on these occasions in line with the guidelines described above.
(§4) The following bacterial strains were used in these MIC determinations:
2) Acinetobacter baumannii/haemolyticus: Multidrug-resistant clinical isolate labeled as AB-3167 in Tables 2 and 3;

[2] = target: T1, Pseudomonas aeruginosa LpxC enzyme (Pseudomonas aeruginosa, UniProt P47205); experiment: IC50 assay, LpxC enzyme from P. aeruginosa (PA LpxC enzyme IC50); format: biochemical; settings: Table 3; LpxC enzyme 0.1 nM, 25° C., 1 hour; read-out: PA:IC50
T1 construct: made in house; host or cells: E. coli
T1 sequence (P47205 1-303): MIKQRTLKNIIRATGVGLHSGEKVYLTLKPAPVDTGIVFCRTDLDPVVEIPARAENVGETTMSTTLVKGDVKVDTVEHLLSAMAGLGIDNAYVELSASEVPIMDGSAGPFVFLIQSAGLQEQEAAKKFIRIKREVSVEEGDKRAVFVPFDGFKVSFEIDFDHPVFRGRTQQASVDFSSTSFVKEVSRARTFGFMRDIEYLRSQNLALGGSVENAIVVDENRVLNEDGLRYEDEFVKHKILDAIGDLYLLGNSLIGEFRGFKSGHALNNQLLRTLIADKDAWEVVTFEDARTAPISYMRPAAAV
Experimental: In order to assess the compounds biological activity, selected in vitro assays were conducted on selected compounds. One of the assays measured the compounds ability to disrupt the synthesis of lipopolysaccharide, LPS, which is a component of the outer membrane of Gram-negative bacteria. Disruption of this synthesis is lethal to the bacteria. The assay determined the compound's ability to inhibit LpxC, which is the first enzyme in the biosynthetic pathway for LPS (measured as IC50). Additionally, MICs (minimal inhibitory concentrations) were determined for several bacteria. The specific protocols are described below:
A) IC50 Assay, LpxC Enzyme from P. aeruginosa (Labeled as PA LpxC Enzyme IC50):
At the end of 1 hour, 5 ul of 1 N HCl was added to stop the enzyme reaction, the plates were centrifuged, and then processed with the BioTrove Rapidfire HTMS Mass Spectrometry System. A no-enzyme control was used in calculating the IC50 values from the percent conversion values.

PA:UC12120 = experiment: MIC determination, PA:UC12120 (Table 3); format: cell-based, Pseudomonas aeruginosa; settings: Pseudomonas aeruginosa, UC12120, Table 3, lower of duplicate values
Experimental: as §1, §2, §3
In Table 3 below, column 1 corresponds to the Example number, column 2 provides the IUPAC name, columns 3-6 provide in vitro biological data generated in the same manner as in Table 2, columns 7 and 8 provide the retention times and mass spectra generated via LCMS, using the method described below. All data is not currently available for all compounds, as indicated by a blank cell in Table 3.

[3] = tested on: Escherichia coli EC-1: VOGEL, mouse virulent; experiment: MIC determination, EC-1; format: cell-based; settings: Escherichia coli, read-out: EC-1 (MIC), Table 3, lower of duplicate values
Experimental: as §1, §2, §3, §4
3) Escherichia coli EC-1: VOGEL, mouse virulent labeled as EC-1 in Tables 2 and 3;

| Compound | MIC [1] | pIC50 [2] | MIC (PA:UC12120) | MIC [3] |
| --- | --- | --- | --- | --- |
| Cc1cc(-c2cc(=O)n(CCC(C)(C(=O)NO)S(C)(=O)=O)cc2F)ccc1C#N (stereo not drawn) [Example 114, 4-[4-(4-cyano-3-methylphenyl)-5-fluoro-2-oxopyridin-1(2H)-yl]-N-hydroxy-2-methyl-2-(methylsulfonyl)butanamide] | > 64 µg/mL | 8.89 | 2 µg/mL (≈ 4.75 µM) | 4 µg/mL (≈ 9.49 µM) |
| CC(=O)Nc1ccc(-c2cc(=O)n(CCC(C)(C(=O)NO)S(C)(=O)=O)cc2F)cc1 (stereo not drawn) [Example 81, 4-[4-(4-acetamidophenyl)-5-fluoro-2-oxopyridin-1(2H)-yl]-N-hydroxy-2-methyl-2-(methylsulfonyl)butanamide] | > 64 µg/mL | 7.61 | 32 µg/mL (≈ 72.8 µM) | 64 µg/mL (≈ 146 µM) |
| COc1cccc(-c2cc(=O)n(CCC(C)(C(=O)NO)S(C)(=O)=O)cc2F)c1 (stereo not drawn) [Example 100, 4-[5-fluoro-4-(3-methoxyphenyl)-2-oxopyridin-1(2H)-yl]-N-hydroxy-2-methyl-2-(methylsulfonyl)butanamide] | > 64 µg/mL | 8.60 | 2 µg/mL (≈ 4.85 µM) | 4 µg/mL (≈ 9.7 µM) |
| CCOc1ccc(-c2cc(=O)n(CCC(C)(C(=O)NO)S(C)(=O)=O)cc2F)cn1 (stereo not drawn) [Example 99, 4-(6-ethoxy-5′-fluoro-2′-oxo-3,4′-bipyridin-1′(2′H)-yl)-N-hydroxy-2-methyl-2-(methylsulfonyl)butanamide] | > 64 µg/mL | 8.60 | 2 µg/mL (≈ 4.68 µM) | 2 µg/mL (≈ 4.68 µM) |
| Cn1cnc2cc(-c3cc(=O)n(CCC(C)(C(=O)NO)S(C)(=O)=O)cc3F)cnc21 (stereo not drawn) [Example 71, 4-[5-fluoro-4-(3-methyl-3H-imidazo[4,5-b]pyridin-6-yl)-2-oxopyridin-1(2H)-yl]-N-hydroxy-2-methyl-2-(methylsulfonyl)butanamide] | > 64 µg/mL | < 7.00 | > 64 µg/mL | > 64 µg/mL |
| CN(C)c1ncc(-c2cc(=O)n(CCC(C)(C(=O)NO)S(C)(=O)=O)cc2F)cn1 (stereo not drawn) [Example 115, 4-{4-[2-(dimethylamino)pyrimidin-5-yl]-5-fluoro-2-oxopyridin-1(2H)-yl}-N-hydroxy-2-methyl-2-(methylsulfonyl)butanamide] | > 64 µg/mL | 7.13 | 32 µg/mL (≈ 74.9 µM) | 32 µg/mL (≈ 74.9 µM) |
| CCOc1cccc(-c2cc(=O)n(CCC(C)(C(=O)NO)S(C)(=O)=O)cc2F)c1 (stereo not drawn) [Example 112, 4-[4-(3-ethoxyphenyl)-5-fluoro-2-oxopyridin-1(2H)-yl]-N-hydroxy-2-methyl-2-(methylsulfonyl)butanamide] | > 64 µg/mL | 8.51 | 4 µg/mL (≈ 9.38 µM) | 2 µg/mL (≈ 4.69 µM) |
| COc1cc(C#N)ccc1-c1cc(=O)n(CCC(C)(C(=O)NO)S(C)(=O)=O)cc1F (stereo not drawn) [Example 101, 4-[4-(4-cyano-2-methoxyphenyl)-5-fluoro-2-oxopyridin-1(2H)-yl]-N-hydroxy-2-methyl-2-(methylsulfonyl)butanamide] | > 64 µg/mL | 8.28 | 8 µg/mL (≈ 18.3 µM) | 64 µg/mL (≈ 146 µM) |
| CC(CCn1cc(F)c(-c2ccc3c(c2)CNC3=O)cc1=O)(C(=O)NO)S(C)(=O)=O (stereo not drawn) [Example 108, 4-[5-fluoro-2-oxo-4-(1-oxo-2,3-dihydro-1H-isoindol-5-yl)pyridin-1(2H)-yl]-N-hydroxy-2-methyl-2-(methylsulfonyl)butanamide] | > 64 µg/mL | 8.14 | > 64 µg/mL | > 64 µg/mL |
| CC(CCn1cc(F)c(-c2cccc(C#N)c2)cc1=O)(C(=O)NO)S(C)(=O)=O (stereo not drawn) [Example 82, 4-[4-(3-cyanophenyl)-5-fluoro-2-oxopyridin-1(2H)-yl]-N-hydroxy-2-methyl-2-(methylsulfonyl)butanamide] | > 64 µg/mL | 7.89 | 8 µg/mL (≈ 19.6 µM) | 64 µg/mL (≈ 157 µM) |
| COCc1cccc(-c2cc(=O)n(CCC(C)(C(=O)NO)S(C)(=O)=O)cc2F)c1 (stereo not drawn) [Example 93, 4-{5-fluoro-4-[3-(methoxymethyl)phenyl]-2-oxopyridin-1(2H)-yl}-N-hydroxy-2-methyl-2-(methylsulfonyl)butanamide] | > 64 µg/mL | 7.85 | 8 µg/mL (≈ 18.8 µM) | 32 µg/mL (≈ 75 µM) |
| CC(CCn1cc(F)c(-c2cccc(F)c2F)cc1=O)(C(=O)NO)S(C)(=O)=O (stereo not drawn) [Example 117, 4-[4-(2,3-difluorophenyl)-5-fluoro-2-oxopyridin-1(2H)-yl]-N-hydroxy-2-methyl-2-(methylsulfonyl)butanamide] | > 64 µg/mL | 9.10 | 0.5 µg/mL (≈ 1.2 µM) | 2 µg/mL (≈ 4.78 µM) |
| CC(CCn1cc(F)c(-c2cncc(F)c2)cc1=O)(C(=O)NO)S(C)(=O)=O (stereo not drawn) [Example 55, 4-(5,5′-difluoro-2′-oxo-3,4′-bipyridin-1′(2′H)-yl)-N-hydroxy-2-methyl-2-(methylsulfonyl)butanamide] | > 64 µg/mL | 7.18 | 64 µg/mL (≈ 159 µM) | > 64 µg/mL |
| COc1ccc(OC)c(-c2cc(=O)n(CCC(C)(C(=O)NO)S(C)(=O)=O)cc2F)c1 (stereo not drawn) [Example 54, 4-[4-(2,5-dimethoxyphenyl)-5-fluoro-2-oxopyridin-1(2H)-yl]-N-hydroxy-2-methyl-2-(methylsulfonyl)butanamide] | > 64 µg/mL | < 7.00 | > 64 µg/mL | > 64 µg/mL |
| CC(CCn1cc(F)c(-c2ccc(C(F)(F)F)nc2)cc1=O)(C(=O)NO)S(C)(=O)=O (stereo not drawn) [Example 113, 4-[5′-fluoro-2′-oxo-6-(trifluoromethyl)-3,4′-bipyridin-1′(2′H)-yl]-N-hydroxy-2-methyl-2-(methylsulfonyl)butanamide] | > 64 µg/mL | 7.53 | 32 µg/mL (≈ 70.9 µM) | > 64 µg/mL |
| CC(CCn1cc(F)c(-c2ccc3c(c2)CCO3)cc1=O)(C(=O)NO)S(C)(=O)=O (stereo not drawn) [Example 120, 4-[4-(2,3-dihydro-1-benzofuran-5-yl)-5-fluoro-2-oxopyridin-1(2H)-yl]-N-hydroxy-2-methyl-2-(methylsulfonyl)butanamide] | > 64 µg/mL | 9.05 | 1 µg/mL (≈ 2.36 µM) | 2 µg/mL (≈ 4.71 µM) |
| CC(CCn1cc(F)c(-c2ccc(Cl)c(C#N)c2)cc1=O)(C(=O)NO)S(C)(=O)=O (stereo not drawn) [Example 102, 4-[4-(4-chloro-3-cyanophenyl)-5-fluoro-2-oxopyridin-1(2H)-yl]-N-hydroxy-2-methyl-2-(methylsulfonyl)butanamide] | > 64 µg/mL | 8.68 | 4 µg/mL (≈ 9.05 µM) | 4 µg/mL (≈ 9.05 µM) |
| CC(CCn1cc(F)c(-c2ccc(C#N)cc2)cc1=O)(C(=O)NO)S(C)(=O)=O (stereo not drawn) [Example 124, 4-[4-(4-cyanophenyl)-5-fluoro-2-oxopyridin-1(2H)-yl]-N-hydroxy-2-methyl-2-(methylsulfonyl)butanamide] | > 64 µg/mL | 8.47 | 8 µg/mL (≈ 19.6 µM) | 32 µg/mL (≈ 78.5 µM) |
